Laboratory results taken from US10792260B2, “Retinopathy treatment” (CHS Pharma, Inc., priority 2013, dated 2020).

Legend:
[1] = system: ARPE19 cells; assay: UVB radiation induced damage, cell viability by MTS assay
Method: Cell culture studies using RPE cells—For cell culture experiments human RPE cell line ARPE19 (ATCC # CRL 2302) purchased from American Type Culture Collection (Rockville, Md.) was used. Cells were maintained in DMEM F-12 supplemented with L-glutamine. The culture media also contained 10% fetal bovine serum, 100 units/ml penicillin and 100 ug/ml streptomycin at 37 C and 5% CO2. Cells from passages two to five were treated with either no drug or a range of concentrations of the experimental drugs prior to exposing them to oxidative stress. […] ARPE19 cells were plated in 96 well plates at a concentration of 10,000 cells/well. Change in cellular viability was measured using the MTS assay kit from Promega (Madison, Wis.).
Exposure of RPE cells to UVB radiation—For UV radiation assays, the ARPE19 cells were plated in 96 well plates. After 24 hours of incubation with or without our drug the cells were exposed to UVB light (Ultraspec 2000, Pharmacia Biotech) that emit wavelengths at a range of 290 nm to 370 nm. UVB light at intensities of either 800 mj/cm2 or 1200 mj/cm2 were used for our experiments. The duration of exposure of the two energy levels were determined using the formula: Hλ=t×Eλ, where Hλ is the energy level (J/cm2) t is the duration of exposure in seconds and the Eλ is the irradiance (W/cm2) of the UVB source. Irradiance was measured at 1.3 W/cm2, and the exposure times for energy levels of 800 mj/cm2 and 1200 mj/cm2 were calculated to be 9 minutes 14 seconds and 14 minutes 24 seconds, respectively. Immediately after the UVB exposure, the media was replaced with fresh complete DMEM F-12 medium and after 24 hours of incubation at 37° C. and 5% CO2, cellular viability was measured using the MTS assay.
(§2) Cell viability assays—Cellular viability was determined using the CellTiter 96 Aqueous One Cell Proliferation Assay from Promega (Madison, Wis.) as described elsewhere (Marchetti et al, 2009). This assay contains a tertrazolium salt that is converted to formazan dye by the activity of mitochondrial dehydrogenases. The change in color imparted by this conversion was detected by measuring absorbance at 490 nm using a colorimetric microtiter plate reader (Spectramax Plus 384, Molecular Devices).
(§3) Statistical analysis—Unless otherwise mentioned, results of all cell viability experiments represent the mean of three replicates of a representative experiment. The error bars indicate standard deviations. The means were compared using standard t-test and P values <0.05 were considered to be statistically significant.

[2] = system: ARPE19 cells; assay: TBHP induced oxidative stress, cell viability by MTS assay; settings: for protection against TBHP damage as measured by cell viability: 24 hours pretreatment, varying concentrations of TBHP
Method: Cell culture studies using RPE cells—For cell culture experiments human RPE cell line ARPE19 (ATCC # CRL 2302) purchased from American Type Culture Collection (Rockville, Md.) was used. Cells were maintained in DMEM F-12 supplemented with L-glutamine. The culture media also contained 10% fetal bovine serum, 100 units/ml penicillin and 100 ug/ml streptomycin at 37 C and 5% CO2. Cells from passages two to five were treated with either no drug or a range of concentrations of the experimental drugs prior to exposing them to oxidative stress. Oxidative stress was induced chemically by adding tert-butyl hydrogen peroxide (TBHP) or by exposing the cells to UVB light. ARPE19 cells were plated in 96 well plates at a concentration of 10,000 cells/well. Change in cellular viability was measured using the MTS assay kit from Promega (Madison, Wis.).
Experiments involving TBHP induced oxidative stress—ARPE19 cells were grown for 24 hours in 96 well plates in DMEM F-12 complete media. Then they were either treated with no drug or pre-incubated with the experimental drug for 24 hours. The next day the cells were exposed to a range of concentrations (175 μM to 300 μM) of TBHP for 24 hours. On the following day cell viability was measured by the MTS assay (Promega) according to the manufacturer's protocol and which was measured by absorbance at 490 nm using a colorimetric microtiter plate reader (SpectraMax Plus 384; Molecular Devices).
as §2, §3

[3] = system: Hsp27; assay: Western blotting of preconditioning marker Hsp27 in ARPE19 cells; format: cell-based, human; settings: RPE cells pretreated for 48 hours, 200 μM
Method: (§1) Western blotting protocol—Western blotting was carried out on proteins isolated from ARPE19 cells cultured in 60 mm dishes with no drug or 200 μM sulindac or a combination of 200 μM sulindac and 2 μM chelerythrine. Actin and GAPDH were used as control for standardizing protein concentrations. Two late phase preconditioning markers, Hsp27 and iNOS were detected with antibodies (Sant Cruz Biotechnology).

[4] = system: iNOS; assay: Western blotting of preconditioning marker iNOS in ARPE19 cells; format: cell-based, human; settings: RPE cells pretreated for 48 hours, 200 μM
Method: as §1

[5] = system: BALB/c mice; assay: Photooxidative stress in vivo study (light damage, intravitreal injection)
Method: Photooxidative stress in vivo study—The procedures for the in vivo experiments conformed to the ARVO Statement for the Use of Animals in Ophthalmic and Vision Research and were approved by the IACUC at FAU. For the in vivo photooxidative stress experiments albino BALB/c mice were divided into two groups. Mice belonging to the control group were kept in normal light of 12 hr light/dark cycle and not injected with any drug. The animals of the experimental group were dark-adapted for 24 hours after which they were anesthetized with ketamine/xylazine and injected intravitrealy with sulindac, total volume injected was 2 μl in each eye. Concentration of injected sulindac was 0.094 μg/μl. To prepare our injection, the sulindac powder was first dissolved in Tris buffer (pH 8.0) at a concentration of 200 mM. This 200 mM stock was further diluted in sterile PBS to get the appropriate dilution required for the injections. The sulindac solution was injected into the right eye and PBS in the left eye. The animals in the experimental group received atropine for pupil dilation followed by exposure to continuous bright white light. The intensity and duration of light exposure was 6000 lux for 24 hours. Following light exposure, animals were kept in normal light cycle for 5 days prior to harvesting the ocular tissues for histological or biochemical analysis.
Biochemical analysis of ocular tissues—After the completion of the treatment, animals were euthanized using isoflurane inhalation and eyes were enucleated. Following enucleation, the lenses were removed and retinas were carefully removed and washed in PBS. The retinas were homogenized in RIPA lysis buffer and total protein was isolated. The retinal protein was used for evaluation of preconditioning markers and rhodopsin through Western blotting.
Analysis of photoreceptor (PR) cell viability—The eyes were enucleated and fixed in 2.5% glutaraldehyde and 2% formaldehyde, bisected along the vertical meridian, embedded, and retinal sections at 50 microns obtained. Photoxidative stress-induced loss of PR cells was quantified in LM sections by counting the number of ONL nuceli from a series of digitized images of retinal sections.

[6] = eyes treated prior to light exposure
[7] = intravitreal 2 μl of 0.094 μg/μl before 6000 lux for 24 hours
[8] = inhibitor 2 uM added simultaneously with sulindac

Q: With O=c1c2nc(Br)n([C@@H]3O[C@@H]4CO[P@@](O)(=S)O[C@H]4[C@H]3O)c2nc2[nH]c(-c3ccccc3)cn12 [Rp-Br-8-PET-cGMPs] as the compound, how does the “reversal of protection by sulindac preincubation (UVB damage) on PKG inhibition” value ([1]; PKG inhibitor with sulindac) read?
A: significantly reversed

Q: How did the “reversal of sulindac's protective role against TBHP” value ([2]; mK(ATP) channel blocker 50 uM or 75 uM co-incubated with sulindac) turn out when CCCCCC(O)CCCC(=O)O (stereo not drawn) [5-HD, 5-hydroxydecanoic acid] was run?
A: almost complete reversal

Q: With CC1=C(CC(=O)O)c2cc(F)ccc2/C1=C\c1ccc(S(C)(=O)=O)cc1 [sulindac sulfone] as the compound, how does the “protection against UV damage (cell viability)” value ([1]; 200 uM, in place of sulindac) read?
A: complete protection

Q: With CC1=C(CC(=O)O)c2cc(F)ccc2/C1=C\c1ccc([S+](C)[O-])cc1 (stereo not drawn) [sulindac] as the compound, how does the “protection against UVB exposure (cell viability)” value ([1]; 200 uM, 24 hours pretreatment, 1200 mj UVB) read?
A: about 50%

Q: What about the “induction of Hsp27” value [3] of the same compound?
A: significant induction

Q: And the “induction of iNOS” value [4]?
A: significant induction

Q: And the “protection against TBHP damage as measured by cell viability” value ([2]; sulindac 125 uM)?
A: essentially complete protection

Q: And the “protection against TBHP damage as measured by cell viability” value ([2]; sulindac 200 uM)?
A: essentially complete protection

Q: What about the “Hsp27 level in retinal total protein (Western blotting)” value [5, 6] of the same compound?
A: upregulation

Q: What about the “iNOS level in retinal total protein (Western blotting)” value [5, 6] of the same compound?
A: upregulation

Q: And the “Rhodopsin levels by Western blotting, treated eye compared to PBS-treated eye” value [5, 7]?
A: higher

Q: What about the “protection of photoreceptors against photooxidative stress induced loss of viability (histology)” value [5, 7] of the same compound?
A: protection of photoreceptors

Q: What about the “thickness of the photoreceptor cell nuclear layer, greater than PBS-treated eye” value ([5]; intravitreal 2 μl of 0.094 μg/μl before 6000 lux for 24 hours, histological sections) of the same compound?
A: about 40%

Q: Which “reversal of the sulindac protection against UVB” value ([1]; inhibitor 3 uM with sulindac) does the source give for CC(=O)c1c(O)c(C)c(O)c(Cc2c(O)c3c(c(C(=O)/C=C/c4ccccc4)c2O)OC(C)(C)C=C3)c1O [rottlerin] here?
A: no reversal

Q: How did the “effect on sulindac's protection of RPE cells against TBHP induced stress” value ([2]; PPAR alpha antagonist added with sulindac) turn out when CCC(=O)NC[C@H](Cc1ccc(OCCc2nc(-c3ccccc3)oc2C)cc1)N/C(C)=C\C(=O)c1ccc(C(F)(F)F)cc1 [GW 6471] was run?
A: prevented the protection

Q: With COc1ccc2c(c[n+](C)c3c4cc5c(cc4ccc23)OCO5)c1OC [chelerythrine] as the compound, how does the “reversal of protective effect of sulindac against UV damage” value [1, 8] read?
A: significantly reversed the protective effect

Q: And the “reversal of protective effect of sulindac against TBHP damage” value [2, 8]?
A: significantly reversed the protective effect

Q: For O=S(=O)(O)c1cc(O)c(O)c(S(=O)(=O)O)c1 [tiron], which “reversal of sulindac's protection against TBHP” value ([2]; ROS scavenger 1 uM or 2 uM coincubated with sulindac) is on record?
A: complete reversal
